In patent US7893271B2, “Benzimidazole carbamates and (thio) carbamates, and the synthesis and use thereof” (Intervet International B.V., priority 2005, dated 2011):
Converted amounts (≈) assume the structure as drawn. “And” between values parts separate entries of the source, which are not always exact repeats. Equal values may be shown once. Read-outs that look alike come from different tables or passages of the source.

How the values were obtained:
[1] = solubility in water of compounds of the invention
T. axei = assay: anthelmintic efficacy in animals experimentally infected with Trichostrongylus axei; assay type: in vivo, Meriones unguiculatus
Description: (§1) The compounds were tested at doses of 3 mg/kg bodyweight (BW), 1 mg/kg BW and 0.3 mg/kg BW.
(§2) The animals were orally infected L3-larvae of each T. axei and T. colubriformis. On D 19 post infectionem (PI) animals were treated once IP, SC or PO with the test compounds in 10% DMF/90% water a dose of 3 mg/kg BW, 1 mg/kg BW or 0.3 mg/kg BW. Three days after treatment animals were necropsied and worm burden in stomach and small intestine was determined. Efficacy was defined as the reduction of the mean worm count (geometric mean) in the treatment groups in comparison to the control group. The dose-response relationship was investigated by calculating Pearson's coefficient of correlation.

T. colubriformis = assay: anthelmintic efficacy in animals experimentally infected with T. colubriformis; assay type: in vivo, Meriones unguiculatus
Description: as §1, §2

Haemonchus contortus = assay: anthelmintic efficacy in animals experimentally infected with Haemonchus contortus; assay type: in vivo, Meriones unguiculatus
Description: as §1
The animals were orally infected with L3-larvae of H. contortus. On D 10 post infectionem (PI) animals were treated once IP, SC or PO with the test compounds in 10% DMF/90% water at doses of 3.0 mg/kg BW, 1.0 mg/kg BW or 0.3 mg/kg BW. Three days after treatment animals were necropsied and larvae burden in stomachs was determined. Efficacy was defined as the reduction of the mean larvae count (geometric mean) in the treatment groups in comparison to the control group. The dose-response relationship was investigated by calculating Pearson's coefficient of correlation.

[2] = in water; literature; cited from earlier work
[3] = tested on: Ascaridia galli (intestinal roundworm of chicken), larval stage 3 (L3); assay: in vitro larval assay, minimum effective concentration; assay type: cell-based; settings: day 5, 20 larvae per well, microscopic examination
Description: (§3) Anthelmintic effects of the compounds of the present invention were tested in vitro using gut welling larval stages of two parasitic nematode species: Ascaridia galli (intestinal roundworm of chicken), larval stage 3 (L3), and Oesophagostomum dentatum (nodular worm of swine), larval stages 3 and 4 (L3; LA).
(§4) Principle of the assays: Various concentrations of compounds were incubated in 96 well microtiter plates, in which parasites were then distributed at 20 larvae per well. The anthelmintic effects were classified at day 5 by microscopic examination assessing mortality, damage, motility, progression of development and neutral red uptake by the larvae in comparison to a DMSO-control and the standard anthelmintics fenbendazole. The anthelmintic effects were defined by the minimum effective concentration (MEC) as reflected in table 1.

[4] = tested on: Oesophagostomum dentatum (nodular worm of swine), larval stages 3 and 4; assay: as above; assay type: cell-based; settings: day 5, 20 larvae per well
Description: as §3, §4

[5] = reported; cited from earlier work
[6] = 0.3 mg/kg BW once, IP (fenbendazole equivalent 0.3; Compound A 0.2 mg/kg)
[7] = 0.3 mg/kg BW once, PO (fenbendazole equivalent 0.3; Compound A 0.2 mg/kg)
[8] = 0.3 mg/kg BW once, SC (fenbendazole equivalent 0.3; Compound A 0.2 mg/kg)
[9] = 1 mg/kg BW once, IP (fenbendazole equivalent 1.0; Compound A 0.6 mg/kg)
[10] = 1 mg/kg BW once, PO (fenbendazole equivalent 1.0; Compound A 0.6 mg/kg)
[11] = 1 mg/kg BW once, SC (fenbendazole equivalent 1.0; Compound A 0.6 mg/kg)
[12] = 3 mg/kg BW once, IP (fenbendazole equivalent 3.0; Compound A 1.8 mg/kg)
[13] = 3 mg/kg BW once, PO (fenbendazole equivalent 3.0; Compound A 1.8 mg/kg)
[14] = 3 mg/kg BW once, SC (fenbendazole equivalent 3.0; Compound A 1.8 mg/kg)
[15] = 3 mg/kg BW once, IP (fenbendazole equivalent 3.0; Compound A 1.8 mg/kg), listed as Fenbendazole
[16] = 3 mg/kg BW once, PO (fenbendazole equivalent 3.0; Compound A 1.8 mg/kg), listed as Fenbendazole
[17] = 3 mg/kg BW once, SC (fenbendazole equivalent 3.0; Compound A 1.8 mg/kg), listed as Fenbendazole

Row | Compound | Reduction worm number (%) T. axei (T. axei; [6]) [%] | Reduction worm number (%) T. axei (T. axei; [7]) [%] | Reduction worm number (%) T. axei (T. axei; [8]) [%] | Reduction worm number (%) T. axei (T. axei; [9]) [%] | Reduction worm number (%) T. axei (T. axei; [10]) [%] | Reduction worm number (%) T. axei (T. axei; [11]) [%] | Reduction worm number (%) T. axei (T. axei; [12]) [%] | Reduction worm number (%) T. axei (T. axei; [13]) [%] | Reduction worm number (%) T. axei (T. axei; [14]) [%] | Reduction worm number (%) T. colubriformis (T. colubriformis; [6]) [%] | Reduction worm number (%) T. colubriformis (T. colubriformis; [7]) [%] | Reduction worm number (%) T. colubriformis (T. colubriformis; [8]) [%] | Reduction worm number (%) T. colubriformis (T. colubriformis; [9]) [%] | Reduction worm number (%) T. colubriformis (T. colubriformis; [10]) [%] | Reduction worm number (%) T. colubriformis (T. colubriformis; [11]) [%] | Reduction worm number (%) T. colubriformis (T. colubriformis; [12]) [%] | Reduction worm number (%) T. colubriformis (T. colubriformis; [13]) [%] | Reduction worm number (%) T. colubriformis (T. colubriformis; [14]) [%] | Reduction worm number (%) H. contortus larvae (Haemonchus contortus; [6]) [%] | Reduction worm number (%) H. contortus larvae (Haemonchus contortus; [7]) [%] | also measured
1 | (5- and 6-phenylsulfanyl-1-phosphonooxymethyl-1(H)-benzoimidazol-2-yl)-carbamic acid methyl esters di-sodium salts |  |  |  |  |  |  |  |  |  |  |  |  |  |  |  |  |  |  |  |  | solubility in water [1]: 132 mM and 67 g/L
2 | CCCSc1ccc2c(c1)nc(NC(=O)OC)n2COP(=O)([O-])[O-].[Na+].[Na+] [(1-phosphonooxymethyl-5- and 6-propylsulfanyl-1(H)-benzoimidazol-2-yl)-carbamic acid methyl esters] |  |  |  |  |  |  |  |  |  |  |  |  |  |  |  |  |  |  |  |  | solubility ([1]; water): ≥ 50 mM
3 | (5- and 6-phenylsulfanyl-1-phosphonooxymethyl-1(H)-benzoimidazol-2-yl)-carbamic acid methyl esters [Compound A] | 69.66 | 59.20 | −43.64 | 83.98 | 96.71 | 82.98 | 100.00 | 98.00 | 100.00 | −50.17 | −3.71 | −106.50 | 28.18 | 37.27 | 68.61 | 93.26 | 100.00 | 85.70 | 65.02 | 87.00 | Reduction worm number (%) T. axei (T. axei; 0.3 mg/kg BW once, SC (fenbendazole equivalent 0.3; Compound A 0.2 mg/kg), listed as compound A): 43.64%; Reduction worm number (%) T. axei (T. axei; 3 mg/kg BW once, IP (fenbendazole equivalent 3.0; Compound A 1.8 mg/kg), listed as compound A): 100%; Reduction worm number (%) T. axei (T. axei; 3 mg/kg BW once, SC (fenbendazole equivalent 3.0; Compound A 1.8 mg/kg), listed as compound A): 100%; overall efficacy compared with fenbendazole (T. axei; T. axei, all doses and routes): same efficacy as treatment with fenbendazole; overall efficacy compared with fenbendazole (T. colubriformis; T. colubriformis, all doses and routes): same efficacy as treatment with fenbendazole; Reduction worm number (%) H. contortus larvae (Haemonchus contortus; [8]): 47.40%; Reduction worm number (%) H. contortus larvae (Haemonchus contortus; [9]): 90.65%; Reduction worm number (%) H. contortus larvae (Haemonchus contortus; [10]): 88.62%; Reduction worm number (%) H. contortus larvae (Haemonchus contortus; [11]): 87.61%; Reduction worm number (%) H. contortus larvae (Haemonchus contortus; [12]): 93.81%; Reduction worm number (%) H. contortus larvae (Haemonchus contortus; [13]): 90.81%; Reduction worm number (%) H. contortus larvae (Haemonchus contortus; [14]): 94.84%; overall efficacy compared with fenbendazole (Haemonchus contortus; H. contortus, all doses and routes): same efficacy as treatment with fenbendazole
4 | COC(=O)Nc1nc2ccc(Sc3ccccc3)cc2[nH]1 [fenbendazole, reference compound] | −283.85 | −115.44 | 82.15 | 80.94 | 88.80 | 82.15 | 100 | 100 | 100 | 79.33 | 68.75 | 43.18 | 80.04 | 80.04 | 81.10 | 100 | 100 | 100 | 80.63 | 91.73 | solubility [2]: lower than 0.05 μg/mL; Reduction worm number (%) T. axei (T. axei; [15]): 100.00%; Reduction worm number (%) T. axei (T. axei; [16]): 100.00%; Reduction worm number (%) T. axei (T. axei; [17]): 100.00%; Reduction worm number (%) T. colubriformis (T. colubriformis; [15]): 100.00%; Reduction worm number (%) T. colubriformis (T. colubriformis; [16]): 100.00%; Reduction worm number (%) T. colubriformis (T. colubriformis; [17]): 100.00%; Reduction worm number (%) H. contortus larvae (Haemonchus contortus; [8]): 88.36%; Reduction worm number (%) H. contortus larvae (Haemonchus contortus; [9]): 89.33%; Reduction worm number (%) H. contortus larvae (Haemonchus contortus; [10]): 78.05%; Reduction worm number (%) H. contortus larvae (Haemonchus contortus; [11]): 89.16%; Reduction worm number (%) H. contortus larvae (Haemonchus contortus; [12]): 100.00%; Reduction worm number (%) H. contortus larvae (Haemonchus contortus; [13]): 96.49%; Reduction worm number (%) H. contortus larvae (Haemonchus contortus; [14]): 95.10%; Minimum effective concentrations A. galli (L3) [3]: 0.050 µM; Minimum effective concentrations O. dentatum (L3) ([4]; L3): 1.000 µM; Minimum effective concentrations O. dentatum (L4) ([4]; L4): 0.025 µM
5 | COc1ccc2[nH]c([S+]([O-])Cc3ncc(C)c(OC)c3C)nc2c1 (centres unmarked) [omeprazole] |  |  |  |  |  |  |  |  |  |  |  |  |  |  |  |  |  |  |  |  | solubility [2]: 500 µg/mL (≈ 1450 µM)
6 | CCCSc1ccc([N+](=O)[O-])c(N/C(=N/CCS(=O)(=O)O)NC(=O)OC)c1 [netobimin] |  |  |  |  |  |  |  |  |  |  |  |  |  |  |  |  |  |  |  |  | embryonal toxicity [5]: reported to cause embryonal toxicity
